Measured values: US20260092071A1, “COMPOUNDS AND COMPOSITIONS AS SMARCA2/4 DEGRADERS AND USES THEREOF” (REGENTS OF THE UNIVERSITY OF MICHIGAN, priority 2022, published 2026)

Legend:
SMARCA2 = SMARCA2 (Homo sapiens, UniProt P51531); assay: HiBit assay in engineered HT1080 CRISPR knock-in cell, 6 hrs (B series), SMARCA2; assay type: cell-based; details: 6 hrs incubation; for DC50: read-out: SMARC A2 HT1080 HiBit DC50; for Dmax: HT-1080, HT1080 CRISPR knock-in cells, read-out: SMARC A2 HT1080 HiBit Dmax (%)
Summary of the method: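 HT1080 CRISPR knock-in cells carrying the HiBiT tag were seeded onto compounds (final DMSO 0.1%) and incubated 6 hrs at 37° C, 5% CO2. Remaining tagged protein was detected by lytic HiBiT luminescence after adding LgBiT protein and substrate, with LgBiT-free wells serving as negative control.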

SMARCA4 = SMARCA4 (Homo sapiens, UniProt P51532); assay: HiBit assay in engineered HT1080 CRISPR knock-in cell, 6 hrs (B series), SMARCA4; assay type: cell-based; details: 6 hrs incubation; for DC50: read-out: SMARC A4 HT1080 HiBit DC50; for Dmax: HT-1080, HT1080 CRISPR knock-in cells, read-out: SMARC A4 HT1080 HiBit Dmax(%)
Summary of the method: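 Protein abundance is measured in HiBiT-tagged HT1080 CRISPR knock-in cells after a 6 hr compound treatment (0.1% DMSO) by lytic Nano-Glo HiBiT luminescence.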

Chain of SMARCA4 (P51532 whole entry): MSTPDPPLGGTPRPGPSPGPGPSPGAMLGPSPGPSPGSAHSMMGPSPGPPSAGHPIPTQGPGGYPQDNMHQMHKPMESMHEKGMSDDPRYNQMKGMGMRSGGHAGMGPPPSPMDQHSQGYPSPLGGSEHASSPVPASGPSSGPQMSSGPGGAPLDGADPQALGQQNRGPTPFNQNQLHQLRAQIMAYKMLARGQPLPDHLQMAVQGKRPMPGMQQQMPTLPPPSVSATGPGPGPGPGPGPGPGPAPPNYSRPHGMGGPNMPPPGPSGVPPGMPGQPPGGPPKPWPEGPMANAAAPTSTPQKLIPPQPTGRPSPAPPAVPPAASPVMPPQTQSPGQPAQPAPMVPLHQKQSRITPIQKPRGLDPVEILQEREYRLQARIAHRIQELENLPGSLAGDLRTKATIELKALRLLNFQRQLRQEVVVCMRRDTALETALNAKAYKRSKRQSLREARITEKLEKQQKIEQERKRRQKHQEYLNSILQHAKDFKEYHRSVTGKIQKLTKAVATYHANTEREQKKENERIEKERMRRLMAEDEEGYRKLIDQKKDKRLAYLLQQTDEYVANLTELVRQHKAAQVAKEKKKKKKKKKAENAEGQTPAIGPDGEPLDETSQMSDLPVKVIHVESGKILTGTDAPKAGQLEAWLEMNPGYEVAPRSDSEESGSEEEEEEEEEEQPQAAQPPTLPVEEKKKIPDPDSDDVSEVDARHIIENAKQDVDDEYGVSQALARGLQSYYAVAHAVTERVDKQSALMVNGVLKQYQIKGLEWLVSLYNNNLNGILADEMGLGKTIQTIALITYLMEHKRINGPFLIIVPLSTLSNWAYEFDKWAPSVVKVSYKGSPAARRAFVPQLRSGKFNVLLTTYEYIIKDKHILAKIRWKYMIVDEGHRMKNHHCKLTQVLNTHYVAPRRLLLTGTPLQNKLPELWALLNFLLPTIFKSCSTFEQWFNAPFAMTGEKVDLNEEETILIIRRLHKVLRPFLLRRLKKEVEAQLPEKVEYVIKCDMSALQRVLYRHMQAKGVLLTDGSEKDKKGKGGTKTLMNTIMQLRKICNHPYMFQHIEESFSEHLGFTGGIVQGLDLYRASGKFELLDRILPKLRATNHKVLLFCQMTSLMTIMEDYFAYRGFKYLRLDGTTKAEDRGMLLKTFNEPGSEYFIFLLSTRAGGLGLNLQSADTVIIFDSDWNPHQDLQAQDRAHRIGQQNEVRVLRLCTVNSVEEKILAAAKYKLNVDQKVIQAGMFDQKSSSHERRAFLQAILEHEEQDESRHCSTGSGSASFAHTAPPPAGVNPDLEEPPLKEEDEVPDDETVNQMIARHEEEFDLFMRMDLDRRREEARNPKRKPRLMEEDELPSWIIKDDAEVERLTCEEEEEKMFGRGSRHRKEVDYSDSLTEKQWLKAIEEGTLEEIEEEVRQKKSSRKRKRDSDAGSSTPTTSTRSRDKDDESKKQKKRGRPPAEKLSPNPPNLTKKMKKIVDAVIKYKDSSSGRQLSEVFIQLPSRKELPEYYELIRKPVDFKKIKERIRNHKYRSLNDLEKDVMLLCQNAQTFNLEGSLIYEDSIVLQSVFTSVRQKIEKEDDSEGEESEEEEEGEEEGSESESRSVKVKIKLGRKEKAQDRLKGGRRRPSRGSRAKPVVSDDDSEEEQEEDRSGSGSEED
Chain of SMARCA2 (P51531 whole entry): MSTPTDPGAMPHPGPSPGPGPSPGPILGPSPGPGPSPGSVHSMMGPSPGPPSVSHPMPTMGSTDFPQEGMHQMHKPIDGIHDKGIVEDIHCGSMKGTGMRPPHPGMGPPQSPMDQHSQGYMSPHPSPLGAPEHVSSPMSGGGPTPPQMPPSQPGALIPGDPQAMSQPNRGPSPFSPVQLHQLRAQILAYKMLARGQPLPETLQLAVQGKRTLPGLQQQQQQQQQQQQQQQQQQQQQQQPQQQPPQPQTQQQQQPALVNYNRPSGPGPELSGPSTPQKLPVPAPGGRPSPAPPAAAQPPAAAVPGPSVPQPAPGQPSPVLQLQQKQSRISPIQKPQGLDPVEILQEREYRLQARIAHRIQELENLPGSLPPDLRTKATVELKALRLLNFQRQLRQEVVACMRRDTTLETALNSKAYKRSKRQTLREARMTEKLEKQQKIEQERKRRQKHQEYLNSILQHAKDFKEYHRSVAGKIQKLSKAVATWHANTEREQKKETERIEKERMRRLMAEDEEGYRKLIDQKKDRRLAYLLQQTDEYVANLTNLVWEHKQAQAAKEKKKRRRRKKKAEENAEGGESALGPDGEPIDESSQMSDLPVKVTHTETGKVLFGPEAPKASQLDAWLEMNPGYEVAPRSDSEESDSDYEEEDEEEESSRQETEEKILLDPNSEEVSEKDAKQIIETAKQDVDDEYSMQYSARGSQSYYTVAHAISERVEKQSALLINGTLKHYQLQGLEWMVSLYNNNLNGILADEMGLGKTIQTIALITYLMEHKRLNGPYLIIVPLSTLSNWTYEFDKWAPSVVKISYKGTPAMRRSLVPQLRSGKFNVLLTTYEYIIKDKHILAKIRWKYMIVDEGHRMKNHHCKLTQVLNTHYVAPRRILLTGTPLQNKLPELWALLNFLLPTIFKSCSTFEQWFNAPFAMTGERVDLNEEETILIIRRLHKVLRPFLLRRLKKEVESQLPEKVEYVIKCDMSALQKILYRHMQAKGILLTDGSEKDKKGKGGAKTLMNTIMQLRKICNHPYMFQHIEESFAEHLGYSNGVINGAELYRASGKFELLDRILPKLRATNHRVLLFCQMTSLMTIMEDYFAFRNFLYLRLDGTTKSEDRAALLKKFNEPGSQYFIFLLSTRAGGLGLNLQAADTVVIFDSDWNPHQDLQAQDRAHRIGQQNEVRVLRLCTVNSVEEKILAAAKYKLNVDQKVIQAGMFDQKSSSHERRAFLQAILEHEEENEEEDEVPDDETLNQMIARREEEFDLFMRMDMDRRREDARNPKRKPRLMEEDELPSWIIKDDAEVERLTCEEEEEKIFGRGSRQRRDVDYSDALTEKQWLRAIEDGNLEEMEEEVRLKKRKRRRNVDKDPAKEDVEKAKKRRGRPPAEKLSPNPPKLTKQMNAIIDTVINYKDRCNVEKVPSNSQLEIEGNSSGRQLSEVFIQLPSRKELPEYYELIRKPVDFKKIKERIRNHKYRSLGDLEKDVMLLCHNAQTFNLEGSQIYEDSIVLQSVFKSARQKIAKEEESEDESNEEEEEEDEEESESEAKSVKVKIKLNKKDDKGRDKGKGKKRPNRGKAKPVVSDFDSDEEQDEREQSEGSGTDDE

Cc1ncsc1-c1ccc2c(NC(=O)[C@@H]3C[C@@H](O)CN3C(=O)[C@@H](n3cc([C@H]4CC[C@H](CN5CCC(c6ccc7c(c6)-n6c(nc(=O)c8c(Cl)cccc86)C7(C)C)CC5)CC4)nn3)C(C)(C)C)n[nH]c2c1 [Compound B148, (2S,4R)-1-((S)-2-(4-((1r,4S)-4-((4-(4-chloro-7,7-dimethyl-5-oxo-5,7-dihydroindolo[1,2-a]quinazolin-10-yl)piperidin-1-yl)methyl)cyclohexyl)-1H-1,2,3-triazol-1-yl)-3,3-dimethylbutanoyl)-4-hydroxy-N-(6-(4-methylthiazol-5-yl)-1H-indazol-3-yl)pyrrolidine-2-carboxamide]
DC50 (SMARCA2; HT1080 CRISPR knock-in cells): 100 to 500 nM | Dmax (SMARCA2): < 50% | DC50 (SMARCA4; HT1080 CRISPR knock-in cells): < 100 nM | Dmax (SMARCA4): < 50%

Cc1ncsc1-c1ccc([C@H](C)NC(=O)[C@@H]2C[C@@H](O)CN2C(=O)[C@@H](NC(=O)CCCCN2CCC(c3ccc4c(c3)-n3c(nc(=O)c5c(Cl)cccc53)C4(C)C)CC2)C(C)(C)C)cc1 [Compound B50, (2S,4R)-1-((S)-2-(5-(4-(4-chloro-7,7-dimethyl-5-oxo-5,7-dihydroindolo[1,2-a]quinazolin-10-yl)piperidin-1-yl)pentanamido)-3,3-dimethylbutanoyl)-4-hydroxy-N-((S)-1-(4-(4-methylthiazol-5-yl)phenyl)ethyl)pyrrolidine-2-carboxamide]
DC50 (SMARCA2; HT1080 CRISPR knock-in cells): 100 to 500 nM | Dmax (SMARCA2): 70 to 90% | DC50 (SMARCA4; HT1080 CRISPR knock-in cells): > 1000 nM | Dmax (SMARCA4): < 50%

Cc1cc(C(C(=O)N2C[C@H](O)C[C@H]2C(=O)N[C@@H](CN2CCC(c3cccc4c3C(C)(C)c3nc(=O)c5c(Cl)cccc5n3-4)CC2)c2ccc(-c3scnc3C)cc2)C(C)C)on1 (stereo partly drawn) [Compound B154, (2S,4R)-N-((R)-2-(4-(4-chloro-7,7-dimethyl-5-oxo-5,7-dihydroindolo[1,2-a]quinazolin-8-yl)piperidin-1-yl)-1-(4-(4-methylthiazol-5-yl)phenyl)ethyl)-4-hydroxy-1-(3-methyl-2-(3-methylisoxazol-5-yl)butanoyl)pyrrolidine-2-carboxamide]
SMARC A2 HT1080 HiBit Dmax (%) (SMARCA2; HT1080 CRISPR knock-in cells): A (A (>90% degradation)) | DC50 (SMARCA2; HT1080 CRISPR knock-in cells): < 100 nM | SMARC A4 HT1080 HiBit Dmax(%) (SMARCA4; HT1080 CRISPR knock-in cells): B (B (70-90% degradation)) | DC50 (SMARCA4; HT1080 CRISPR knock-in cells): < 100 nM

Cc1ncsc1-c1ccc([C@H](C)NC(=O)[C@@H]2C[C@@H](O)CN2C(=O)[C@@H](NC(=O)C2CCC(N3CCC(c4ccc5c(c4)-n4c(nc(=O)c6c(Cl)cccc64)C5(C)C)CC3)CC2)C(C)(C)C)cc1 (stereo partly drawn) [Compound B47, (2S,4R)-1-((S)-2-(4-(4-(4-chloro-7,7-dimethyl-5-oxo-5,7-dihydroindolo[1,2-a]quinazolin-10-yl)piperidin-1-yl)cyclohexane-1-carboxamido)-3,3-dimethylbutanoyl)-4-hydroxy-N-((S)-1-(4-(4-methylthiazol-5-yl)phenyl)ethyl)pyrrolidine-2-carboxamide]
DC50 (SMARCA2; HT1080 CRISPR knock-in cells): 100 to 500 nM | Dmax (SMARCA2): 70 to 90% | DC50 (SMARCA4; HT1080 CRISPR knock-in cells): 100 to 500 nM | Dmax (SMARCA4): < 50%

Cc1ncsc1-c1ccc([C@H](CC(=O)N[C@H]2CC[C@H](CN3CCC(c4ccc5c(c4)-n4c(nc(=O)c6c(Cl)cccc64)C5(C)C)CC3)CC2)NC(=O)[C@@H]2C[C@@H](O)CN2C(=O)[C@@H](NC(=O)C2(F)CC2)C(C)(C)C)cc1 [Compound B22, (2S,4R)-N-((S)-3-(((1r,4S)-4-((4-(4-chloro-7,7-dimethyl-5-oxo-5,7-dihydroindolo[1,2-a]quinazolin-10-yl)piperidin-1-yl)methyl)cyclohexyl)amino)-1-(4-(4-methylthiazol-5-yl)phenyl)-3-oxopropyl)-1-((S)-2-(1-fluorocyclopropane-1-carboxamido)-3,3-dimethylbutanoyl)-4-hydroxypyrrolidine-2-carboxamide]
DC50 (SMARCA2; HT1080 CRISPR knock-in cells): < 100 nM | Dmax (SMARCA2): > 90% | DC50 (SMARCA4; HT1080 CRISPR knock-in cells): 100 to 500 nM | Dmax (SMARCA4): 50 to 69%

CC(C)C(C(=O)N1C[C@H](O)C[C@H]1C(=O)N[C@@H](C)c1ccc(-c2ncnn2C)cc1)c1cc(OCCN2CCC(c3ccc4c(c3)C(C)(C)c3nc(=O)c5c(Cl)cccc5n3-4)CC2)no1 (stereo partly drawn) [Compound B74, (2S,4R)-1-(2-(3-(2-(4-(4-chloro-7,7-dimethyl-5-oxo-5,7-dihydroindolo[1,2-a]quinazolin-9-yl)piperidin-1-yl)ethoxy)isoxazol-5-yl)-3-methylbutanoyl)-4-hydroxy-N-((S)-1-(4-(1-methyl-1H-1,2,4-triazol-5-yl)phenyl)ethyl)pyrrolidine-2-carboxamide]
DC50 (SMARCA2; HT1080 CRISPR knock-in cells): 100 to 500 nM | Dmax (SMARCA2): < 50% | DC50 (SMARCA4; HT1080 CRISPR knock-in cells): > 1000 nM | Dmax (SMARCA4): < 50%

Cc1ncsc1-c1ccc([C@H](C)NC(=O)[C@@H]2C[C@@H](O)CN2C(=O)[C@H](C(C)C)n2cc(C3CCC(N4CCC(c5cccc6c5C(C)(C)c5nc(=O)c7c(Cl)cccc7n5-6)CC4)CC3)nn2)cc1 (stereo partly drawn) [Compound B114, (2S,4R)-1-((S)-2-(4-(4-(4-(4-chloro-7,7-dimethyl-5-oxo-5,7-dihydroindolo[1,2-a]quinazolin-8-yl)piperidin-1-yl)cyclohexyl)-1H-1,2,3-triazol-1-yl)-3-methylbutanoyl)-4-hydroxy-N-((S)-1-(4-(4-methylthiazol-5-yl)phenyl)ethyl)pyrrolidine-2-carboxamide]
DC50 (SMARCA2; HT1080 CRISPR knock-in cells): < 100 nM | Dmax (SMARCA2): 70 to 90% | DC50 (SMARCA4; HT1080 CRISPR knock-in cells): 100 to 500 nM | Dmax (SMARCA4): < 50%

Cc1cc(C(C(=O)N2C[C@H](O)C[C@H]2C(=O)N[C@@H](C)c2ccc(-c3scnc3C#CCOCCCN3CCC(c4cccc5c4C(C)(C)c4nc(=O)c6c(Cl)cccc6n4-5)CC3)cc2)C(C)C)on1 (stereo partly drawn) [Compound B145, (2S,4R)-N-((S)-1-(4-(4-(3-(3-(4-(4-chloro-7,7-dimethyl-5-oxo-5,7-dihydroindolo[1,2-a]quinazolin-8-yl)piperidin-1-yl)propoxy)prop-1-yn-1-yl)thiazol-5-yl)phenyl)ethyl)-4-hydroxy-1-(3-methyl-2-(3-methylisoxazol-5-yl)butanoyl)pyrrolidine-2-carboxamide]
DC50 (SMARCA2; HT1080 CRISPR knock-in cells): 100 to 500 nM | Dmax (SMARCA2): 70 to 90% | DC50 (SMARCA4; HT1080 CRISPR knock-in cells): 100 to 500 nM | Dmax (SMARCA4): 50 to 69%

Cc1ncsc1-c1ccc([C@H](C)NC(=O)[C@@H]2C[C@@H](O)CN2C(=O)[C@@H](NC(=O)CCCn2cc(-c3ccc4c(c3)C(C)(C)c3nc(=O)c5c(Cl)cccc5n3-4)cn2)C(C)(C)C)cc1 [Compound B93, (2S,4R)-1-((S)-2-(4-(4-(4-chloro-7,7-dimethyl-5-oxo-5,7-dihydroindolo[1,2-a]quinazolin-9-yl)-1H-pyrazol-1-yl)butanamido)-3,3-dimethylbutanoyl)-4-hydroxy-N—((S)-1-(4-(4-methylthiazol-5-yl)phenyl)ethyl)pyrrolidine-2-carboxamide]
DC50 (SMARCA2; HT1080 CRISPR knock-in cells): 100 to 500 nM | Dmax (SMARCA2): 50 to 69% | DC50 (SMARCA4; HT1080 CRISPR knock-in cells): 100 to 500 nM | Dmax (SMARCA4): < 50%

Cc1ncsc1-c1ccc(CNC(=O)[C@@H]2C[C@@H](O)CN2C(=O)[C@@H](NC(=O)C2(F)CC2)C(C)(C)C)c(OCCN2CCC(c3ccc4c(c3)-n3c(nc(=O)c5c(Cl)cccc53)C4(C)C)CC2)c1 [Compound B34, (2S,4R)-N-(2-(2-(4-(4-chloro-7,7-dimethyl-5-oxo-5,7-dihydroindolo[1,2-a]quinazolin-10-yl)piperidin-1-yl)ethoxy)-4-(4-methylthiazol-5-yl)benzyl)-1-((S)-2-(1-fluorocyclopropane-1-carboxamido)-3,3-dimethylbutanoyl)-4-hydroxypyrrolidine-2-carboxamide]
DC50 (SMARCA2; HT1080 CRISPR knock-in cells): < 100 nM | Dmax (SMARCA2): > 90% | DC50 (SMARCA4; HT1080 CRISPR knock-in cells): < 100 nM | Dmax (SMARCA4): > 90%

Cc1ncsc1-c1ccc2c(c1)CC[C@@H]2NC(=O)[C@@H]1C[C@@H](O)CN1C(=O)[C@@H](n1cc([C@H]2CC[C@H](CN3CCC(c4ccc5c(c4)-n4c(nc(=O)c6c(Cl)cccc64)C5(C)C)CC3)CC2)nn1)C(C)(C)C [Compound B123, (2S,4R)-1-((S)-2-(4-((1r,4S)-4-((4-(4-chloro-7,7-dimethyl-5-oxo-5,7-dihydroindolo[1,2-a]quinazolin-10-yl)piperidin-1-yl)methyl)cyclohexyl)-1H-1,2,3-triazol-1-yl)-3,3-dimethylbutanoyl)-4-hydroxy-N-((S)-5-(4-methylthiazol-5-yl)-2,3-dihydro-1H-inden-1-yl)pyrrolidine-2-carboxamide]
DC50 (SMARCA2; HT1080 CRISPR knock-in cells): < 100 nM | Dmax (SMARCA2): 70 to 90% | DC50 (SMARCA4; HT1080 CRISPR knock-in cells): 100 to 500 nM | Dmax (SMARCA4): < 50%

Cc1ncsc1-c1ccc2c(c1)CCC[C@@H]2NC(=O)[C@@H]1C[C@@H](O)CN1C(=O)[C@@H](n1cc([C@H]2CC[C@H](CN3CCC(c4ccc5c(c4)-n4c(nc(=O)c6c(Cl)cccc64)C5(C)C)CC3)CC2)nn1)C(C)(C)C [Compound B146, (2S,4R)-1-((S)-2-(4-((1r,4S)-4-((4-(4-chloro-7,7-dimethyl-5-oxo-5,7-dihydroindolo[1,2-a]quinazolin-10-yl)piperidin-1-yl)methyl)cyclohexyl)-1H-1,2,3-triazol-1-yl)-3,3-dimethylbutanoyl)-4-hydroxy-N-((S)-6-(4-methylthiazol-5-yl)-1,2,3,4-tetrahydronaphthalen-1-yl)pyrrolidine-2-carboxamide]
DC50 (SMARCA2; HT1080 CRISPR knock-in cells): < 100 nM | Dmax (SMARCA2): > 90% | DC50 (SMARCA4; HT1080 CRISPR knock-in cells): 100 to 500 nM | Dmax (SMARCA4): 50 to 69%
